By AC50 is commonly meant the concentration at which the activity in the assay is half-maximal.

Among the data in ChEMBL document CHEMBL1201862, “PubChem BioAssay data set” (2004) are IC50, EC50 and AC50 values, retold here.

Assay [1] addresses T1, Corticotropin-releasing factor receptor 2/Corticotropin-releasing factor-binding protein (Homo sapiens, UniProt P24387+Q13324).
T1 sequence (Q13324 whole entry): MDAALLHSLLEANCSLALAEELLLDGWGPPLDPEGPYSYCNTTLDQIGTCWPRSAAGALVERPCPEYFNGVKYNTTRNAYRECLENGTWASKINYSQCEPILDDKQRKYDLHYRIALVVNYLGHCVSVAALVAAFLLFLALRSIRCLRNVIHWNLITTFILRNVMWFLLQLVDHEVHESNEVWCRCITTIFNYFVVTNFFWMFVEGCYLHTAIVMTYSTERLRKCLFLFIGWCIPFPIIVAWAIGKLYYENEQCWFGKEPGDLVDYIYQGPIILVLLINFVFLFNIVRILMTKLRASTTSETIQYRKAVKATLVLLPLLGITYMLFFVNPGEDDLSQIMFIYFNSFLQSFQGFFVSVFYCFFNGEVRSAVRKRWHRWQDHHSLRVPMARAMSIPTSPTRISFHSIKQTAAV
T1 sequence (P24387 whole entry): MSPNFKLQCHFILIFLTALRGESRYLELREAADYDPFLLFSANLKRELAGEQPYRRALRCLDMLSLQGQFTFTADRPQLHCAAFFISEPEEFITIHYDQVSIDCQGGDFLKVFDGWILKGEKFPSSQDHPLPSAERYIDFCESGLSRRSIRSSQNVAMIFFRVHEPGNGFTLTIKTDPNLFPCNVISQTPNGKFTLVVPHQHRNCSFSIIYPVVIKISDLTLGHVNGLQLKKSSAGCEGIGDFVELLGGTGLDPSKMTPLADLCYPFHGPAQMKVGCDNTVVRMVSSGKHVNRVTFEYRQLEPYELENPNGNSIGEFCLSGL
Nature of the assay: Dose Response confirmation of uHTS hits for small molecule antagonists of the CRF-binding protein and CRF-R2 receptor complex. The assay is classed as functional. The note with it: read-out: IC50_Mean.

The target in assay [2] is T1, Corticotropin-releasing factor receptor 2/Corticotropin-releasing factor-binding protein. As to the kind of experiment: activators of CRF receptor 2 with binding protein – uHTS hits, confirmation (AID 602473). It is filed as functional. The note with it: read-out: EC50_Mean.
Assay [3] can be described thus: P. falciparum Dd2 growth inhibitors, dose response, SYBR Green, cherry-picked samples (AID 1159567). It is filed as functional, cell-based.
Assay [4] is described as follows: Luminescence Cell-Based Dose Confirmation HTS to Identify Inhibitors of Platelet Dense Granule Release. [Related pubchem assays: 1663 (Primary HTS), 1678 (Summary of Project)]. The assay is classed as functional.
Assay [5] has as its target Luciferin 4-monooxygenase (Photinus pyralis, UniProt P08659). Nature of the assay: inhibition of purified Photinus pyralis luciferase – biochemical, luminescence, dose response (AID 1891).
For the next assay, the system named is Streptococcus. Nature of the assay: GAS UMAA2166 growth inhibition – luminescence, BacTiterGlo, counter-screen for streptokinase expression inhibitor project, dose response (AID 1915).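 Note: potency for reduction of bacterial viability or growth.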 The assay is classed as functional, organism-based.
For assay [6], the system named is Streptococcus sp. 'group A'. Nature of the assay: Streptococcus pyogenes SK(-)GAS viability under kanamycin – luminescence, BacTiterGlo, confirmation, counter-screen for streptokinase expression inhibitor project, dose response (AID 1900). The assay is classed as functional, organism-based. Background: Counterscreens check selectivity or assay interference.
For assay [7], the system named is BJ. Nature of the assay: cells. The assay is classed as functional, cell-based. The note with it: Homo sapiens.
The test system of assay [8] is BJ. As to the kind of experiment: BJ-TERT fibroblast viability loss – cell-based, RAS-independent, luminescence, dose response (AID 1933). The note with it: Homo sapiens. The assay is classed as functional.
Another assay has as its target T2, Streptokinase A (Streptococcus pyogenes serotype M1, UniProt P10520).
T2 sequence (P10520 whole entry): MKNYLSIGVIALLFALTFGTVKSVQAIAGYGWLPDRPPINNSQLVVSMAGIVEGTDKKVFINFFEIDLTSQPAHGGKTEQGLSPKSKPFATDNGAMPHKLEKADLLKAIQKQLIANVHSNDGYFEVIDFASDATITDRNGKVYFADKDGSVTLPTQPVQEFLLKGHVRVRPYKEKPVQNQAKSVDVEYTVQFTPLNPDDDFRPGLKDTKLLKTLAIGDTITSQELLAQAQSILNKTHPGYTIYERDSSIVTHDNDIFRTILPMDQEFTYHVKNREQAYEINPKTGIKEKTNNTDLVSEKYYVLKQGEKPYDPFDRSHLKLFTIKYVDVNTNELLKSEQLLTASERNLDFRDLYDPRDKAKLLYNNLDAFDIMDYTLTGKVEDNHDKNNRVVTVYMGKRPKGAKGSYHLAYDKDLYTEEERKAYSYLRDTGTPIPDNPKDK
As to the kind of experiment: viability-normalized secreted streptokinase activity reduction – plasminogen activation absorbance, OD405, dose response (AID 1914).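 Note: secreted streptokinase activity via plasminogen activation per viability signal from cell pellet.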 It is filed as functional, Streptococcus pyogenes M1 GAS.

In assay [9] the test system is BJ. As to the kind of experiment: BJ-TERT-LT-ST fibroblast viability loss – cell-based, RAS-independent, luminescence, dose response (AID 1935).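 Note: BJ fibroblasts immortalized with TERT plus LT and ST oncogenes.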 The assay is classed as functional. The note with it: Homo sapiens.
The nature of assay [10]: DRD fibroblast viability loss – cell-based, non-viral oncogenic, luminescence, dose response (AID 1934). The note with it: Homo sapiens. It is filed as functional.
The target in the next assay is T3, Protein skinhead-1 (Caenorhabditis elegans, UniProt P34707).
T3 sequence (P34707 whole entry): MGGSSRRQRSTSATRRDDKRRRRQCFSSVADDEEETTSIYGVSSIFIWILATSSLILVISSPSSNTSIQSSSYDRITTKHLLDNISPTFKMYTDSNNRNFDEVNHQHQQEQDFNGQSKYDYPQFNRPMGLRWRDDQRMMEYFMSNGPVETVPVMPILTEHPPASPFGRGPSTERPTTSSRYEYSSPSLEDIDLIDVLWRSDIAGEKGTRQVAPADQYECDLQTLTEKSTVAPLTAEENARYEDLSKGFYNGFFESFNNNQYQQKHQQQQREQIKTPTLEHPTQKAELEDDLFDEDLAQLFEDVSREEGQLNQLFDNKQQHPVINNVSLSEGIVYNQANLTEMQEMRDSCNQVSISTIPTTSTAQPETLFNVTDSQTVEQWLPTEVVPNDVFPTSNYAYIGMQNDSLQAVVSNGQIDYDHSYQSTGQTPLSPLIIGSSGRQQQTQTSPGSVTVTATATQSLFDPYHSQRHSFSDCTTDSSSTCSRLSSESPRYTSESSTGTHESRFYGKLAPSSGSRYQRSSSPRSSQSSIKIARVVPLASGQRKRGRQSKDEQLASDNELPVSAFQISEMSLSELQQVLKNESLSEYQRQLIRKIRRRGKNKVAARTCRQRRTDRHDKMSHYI
It is filed as functional.

A short description of assay [11]: Luminescence Cell-Based Dose Response HTS to Identify Activators of Luciferase Translation or Activity in H4 […] Cells. [Related pubchem assays: 1829 (Project Summary), 1814 (Primary HTS)]. The assay is classed as functional.
The nature of assay [12]: fluconazole-exposed Candida albicans growth modulators – fluorescence, retest, confirmation (AID 2467). The assay is classed as functional, cell-based.
Another assay concerns H4. As to the kind of experiment: Luminescence Cell-Based Dose Response HTS to Identify Activators of 5'UTR Stem-Loop Driven Prion Protein mRNA Translation in H4 Neuroglioblastoma Cells. [Related pubchem assays: 1829 (Project Summary), 1814 (Primary HTS)]. The assay is classed as functional. The note with it: Homo sapiens.
A short description of assay [13]: Luminescence Cell-Based Dose Confirmation HTS to Identify Activators of 5'UTR Stem-Loop Driven Alpha-Synuclein mRNA Translation in H4 Neuroglioblastoma Cells. [Related pubchem assays: 1829 (Project Summary), 1814 (Primary HTS)]. The assay is classed as functional.
Assay [14] in a line: NIH-3T3 fibroblast cytotoxicity, dose response, cytotoxicity control, cell-based, fluorescence, Alamar Blue, secondary assay (AID 2327).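 Note: NIH-3T3 mouse fibroblasts cultured with fluconazole at 8 µg/mL.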 It is filed as functional. (In general: Resazurin is reduced to fluorescent resorufin, in cell work by metabolically active cells.)

Activity calls are given as the source filed them. Cut-off read from the data, not from the text of the source, for most assays here: actives have a measured EC50 and inactives only a lower limit.

Luciferin 4-monooxygenase, sequence (P08659 whole entry): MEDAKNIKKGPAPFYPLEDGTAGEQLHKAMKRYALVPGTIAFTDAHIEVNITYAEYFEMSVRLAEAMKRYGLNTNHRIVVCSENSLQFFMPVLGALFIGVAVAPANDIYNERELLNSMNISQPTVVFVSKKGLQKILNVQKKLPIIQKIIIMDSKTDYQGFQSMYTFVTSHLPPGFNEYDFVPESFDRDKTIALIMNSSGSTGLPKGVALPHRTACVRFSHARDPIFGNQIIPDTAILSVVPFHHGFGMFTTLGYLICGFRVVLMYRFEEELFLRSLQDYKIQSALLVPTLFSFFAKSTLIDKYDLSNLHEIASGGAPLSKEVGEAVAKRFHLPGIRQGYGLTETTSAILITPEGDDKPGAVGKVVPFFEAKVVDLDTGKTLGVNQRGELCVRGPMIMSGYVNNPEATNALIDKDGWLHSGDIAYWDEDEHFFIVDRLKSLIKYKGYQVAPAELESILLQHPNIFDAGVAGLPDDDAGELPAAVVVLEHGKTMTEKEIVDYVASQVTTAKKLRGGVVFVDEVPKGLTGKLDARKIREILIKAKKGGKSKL

Consider `CCOc1ccc(NC(=O)CCNS(=O)(=O)c2cccc3nonc23)cc1`, for which the IC50 in [1] is > 47.1 µM (inactive). The EC50 in assay [2] is > 53 µM (inactive).
With `COc1cccc(CN2CC3(CN(Cc4ccccn4)C3)c3c([nH]c4cc(OC)ccc34)[C@H]2CO)c1`, the AC50 in assay [3] was 5.33 µM (active).
For `O=C(Nc1ccc(F)cc1)Nc1ccccc1F`, the values for the EC50 in [4] and in assay [5] were 12.1 µM (active) and 6.85 µM (active), respectively.
Take `COc1ccccc1NC1=NC(=O)/C(=C/c2ccc(N(C)C)cc2)S1`: the EC50 in the assay on Streptococcus was 46.7 µM (active); in assay [6] it was 15.1 µM (active); in the assay on BJ [7], 59 µM (active); with BJ [8] it was 1.91 µM (active); on Streptokinase A, > 150 µM (not active); with BJ [9] it was 64.2 µM (inconclusive). Further, the EC50 in [10] was 1.45 µM (active).
In the case of `Cn1c(=O)n(C)c2cc(S(=O)(=O)NCc3ccccc3)ccc21`, the EC50 in assay [4] and in assay [5] was > 112 µM (not active) in each case.
`c1ccc(-c2cc3nccc(-c4ccccn4)n3n2)cc1`: the results for the IC50 (in assay [1]; at Protein skinhead-1) were > 47.1 µM (inactive) and 47 µM (active), respectively. For the same compound, the EC50 in assay [2] is > 53 µM (inactive).
With `CC(C)(O)C#Cc1ccc([C@H]2[C@H](CO)N3CCCCN(C(=O)c4ccc(F)cc4)C[C@@H]23)cc1`, the AC50 in assay [3] is 15.3 µM (active).
On to `COc1ccc(NC(=O)c2cn(CCC#N)nc2-c2ccc([N+](=O)[O-])cc2)cc1`, for which the EC50 (with BJ [7]; in the assay with BJ [8]; in the assay on BJ [9]; in assay [10]) was > 150 µM (not active) each time.
For the compound `Cn1cc(S(=O)(=O)N2CCCC2)cc1C(=O)N1CCN(c2cccc(Cl)c2)CC1`, the EC50 in [4] and in assay [5] was > 112 µM (not active) each time.
For the compound `CCOC(=O)c1sc(NN=C2C(=O)CC(C)(C)CC2=O)c(C(=O)OCC)c1C`, the EC50 is 20.4 µM (active) in assay [4] and > 112 µM (not active) in assay [5].
Take `COc1ccc(C(=O)Nc2ccccc2C(=O)N/N=C/c2ccccc2OC)cc1`: the EC50 in [4] is 1.11 µM (active); in assay [5], 0.286 µM (active).
For the compound `COc1ccc(C(=O)Nc2ccccc2C(=O)N/N=C/c2ccco2)cc1`, the figures for the EC50 in [4] and in [5] were 4.14 µM (active) and 0.329 µM (active), respectively.
In the case of `c1ccc(CN2CCc3nc4ccccc4cc3C2)cc1`, the EC50 in assay [11] is 33.8 µM (active); in assay [12] it was > 38 µM (not active); with H4, 52.7 µM (active); in assay [13] it was 0.215 µM (active); in assay [14] it was > 160 µM (inconclusive).
Turning to `COc1cc(OC)cc(C(=O)NC2CC3CCC(C2)N3Cc2ccco2)c1` (centres undefined), in [1], the IC50 is > 47.1 µM (inactive). Further, in assay [2], the EC50 was > 53 µM (inactive).
With `O=C(Cc1ccccc1)Nc1nonc1NC(=O)c1ccccc1`, the EC50 in assay [12] was 3.18 µM (active); in assay [14] it was > 150 µM (inactive).
In the case of `CN(C)c1ccc2c(c1)[C@@H]1C[C@H](CC(=O)N3CCc4ccccc4C3)O[C@@H](CO)[C@@H]1O2`, the AC50 in assay [3] was 7.8 µM (active).
`CC(OC(=O)c1ccc(-c2ccc(O)cc2)cc1)C(=O)NC1CCCCC1C` (centres undefined): the IC50 in assay [1] is > 47.1 µM (inactive). In addition, in assay [2], the EC50 was > 53 µM (inactive).
With `C=CCN1C(=O)NC(=O)/C(=C(/CC)NCc2ccc3c(c2)OCO3)C1=O`, the IC50 in [1] was > 47.1 µM (inactive). In addition, in assay [2], the EC50 was > 53 µM (inactive).
Turning to `C=CCCC(=O)N1CCC(n2nccc2NC(=O)c2ccc(OC)cc2)CC1`, in assay [1], the IC50 was > 47.1 µM (inactive). Besides, the EC50 in assay [2] was > 53 µM (inactive).
In the same order, the values of `COC(=O)c1ccc(OCC(O)CN2C(=O)c3ccccc3S2(=O)=O)cc1` (centres undefined) are > 47.1 µM (inactive) and > 53 µM (inactive).
Take `COc1ccccc1NC(=O)c1cc([N+](=O)[O-])ccc1N1CCOCC1`: the EC50 in assay [4] and in [5] was > 112 µM (not active) throughout.
For `Cc1ccc(-n2nc(C)c(/C=N/c3ccc(S(=O)(=O)Nc4nccs4)cc3)c2O)cc1`, the EC50 in the assay on BJ [7] was > 150 µM (not active); in the assay with BJ [8] it was 12.8 µM (active); with BJ [9], > 150 µM (not active); in assay [10] it was 24 µM (active).
Regarding `COc1ccc(-c2cc(C(F)F)n3ncc(C(=O)n4ccnc4C)c3n2)cc1`, the EC50 is 15.3 µM (active) in the assay with BJ [7], 7.36 µM (inconclusive) in the assay on BJ [8], > 150 µM (inconclusive) in the assay with BJ [9] and 7.6 µM (active) in assay [10].
For `CCCC(=O)Nc1ccc2c(c1)nc(CN1CCN(C(=O)OCC)CC1)n2CC`, in that order: 122 µM (active), 15.4 µM (inconclusive), > 75 µM (inconclusive) and 18 µM (active).
`Cc1noc(/C=C/N(C)C)c1S(=O)(=O)N1CCC(C(=O)Nc2ccc(Cl)cc2)CC1`: in assay [1], the IC50 was > 47.1 µM (inactive). In addition, the EC50 in assay [2] is > 53 µM (inactive).
